# According to the NIST ThermoML archive (doi:10.1016/j.jct.2005.03.006):
# ± gives the expanded uncertainty stated by the source.
# Conditions: Liquid, Buoyancy - hydrostatic balance
compound,measurement,setting,value
CCc1ccccc1 [ethylbenzene],mass density,"292.25 K, 100 kPa",867 ± 10 kg/m3
same,mass density,"292.25 K, 5000 kPa",870.8 ± 10 kg/m3
same,mass density,"292.25 K, 9900 kPa",874 ± 10 kg/m3
same,mass density,"292.25 K, 19700 kPa",881.3 ± 10 kg/m3
same,mass density,"292.25 K, 29500 kPa",887.1 ± 10 kg/m3
same,mass density,"292.25 K, 39300 kPa",893 ± 10 kg/m3
same,mass density,"292.25 K, 49100 kPa",898.5 ± 10 kg/m3
same,mass density,"292.25 K, 58900 kPa",903.8 ± 10 kg/m3
same,mass density,"313.45 K, 100 kPa",849.1 ± 10 kg/m3
same,mass density,"313.45 K, 5000 kPa",853.1 ± 10 kg/m3
same,mass density,"313.45 K, 19700 kPa",864.4 ± 10 kg/m3
same,mass density,"313.45 K, 29500 kPa",871.4 ± 10 kg/m3
same,mass density,"313.45 K, 39300 kPa",877.6 ± 10 kg/m3
same,mass density,"313.45 K, 49100 kPa",883.6 ± 10 kg/m3
same,mass density,"313.45 K, 58900 kPa",889.4 ± 10 kg/m3
same,mass density,"336.55 K, 100 kPa",828.7 ± 10 kg/m3
same,mass density,"336.55 K, 5000 kPa",833.6 ± 10 kg/m3
same,mass density,"336.55 K, 9900 kPa",838.5 ± 10 kg/m3
same,mass density,"336.55 K, 19700 kPa",845.8 ± 10 kg/m3
same,mass density,"336.55 K, 29500 kPa",854 ± 10 kg/m3
same,mass density,"336.55 K, 39300 kPa",860.9 ± 10 kg/m3
same,mass density,"336.55 K, 49100 kPa",867.8 ± 10 kg/m3
same,mass density,"336.55 K, 58900 kPa",873.6 ± 10 kg/m3
same,mass density,"358.81 K, 100 kPa",808.4 ± 10 kg/m3
same,mass density,"358.81 K, 5000 kPa",814.5 ± 10 kg/m3
same,mass density,"358.81 K, 9900 kPa",820 ± 10 kg/m3
same,mass density,"358.81 K, 19700 kPa",827.6 ± 10 kg/m3
same,mass density,"358.81 K, 29500 kPa",836.8 ± 10 kg/m3
same,mass density,"358.81 K, 39300 kPa",844.8 ± 10 kg/m3
same,mass density,"358.81 K, 49100 kPa",852.4 ± 10 kg/m3
same,mass density,"358.81 K, 58900 kPa",858.6 ± 10 kg/m3
same,mass density,"382.95 K, 5000 kPa",793 ± 10 kg/m3
same,mass density,"382.95 K, 9900 kPa",799 ± 10 kg/m3
same,mass density,"382.95 K, 19700 kPa",808.1 ± 10 kg/m3
same,mass density,"382.95 K, 29500 kPa",818.2 ± 10 kg/m3
same,mass density,"382.95 K, 39300 kPa",827.1 ± 10 kg/m3
same,mass density,"382.95 K, 49100 kPa",835.1 ± 10 kg/m3
same,mass density,"382.95 K, 58900 kPa",842.5 ± 10 kg/m3
same,mass density,"408.05 K, 5000 kPa",770.4 ± 10 kg/m3
same,mass density,"408.05 K, 9900 kPa",777.3 ± 10 kg/m3
same,mass density,"408.05 K, 19700 kPa",788.5 ± 10 kg/m3
same,mass density,"408.05 K, 29500 kPa",799.7 ± 10 kg/m3
same,mass density,"408.05 K, 39300 kPa",809.5 ± 10 kg/m3
same,mass density,"408.05 K, 49100 kPa",817.9 ± 10 kg/m3
same,mass density,"408.05 K, 58900 kPa",826 ± 10 kg/m3
same,mass density,"434.45 K, 5000 kPa",746 ± 10 kg/m3
same,mass density,"434.45 K, 9900 kPa",754.4 ± 10 kg/m3
same,mass density,"434.45 K, 19700 kPa",768.1 ± 10 kg/m3
same,mass density,"434.45 K, 29500 kPa",780.5 ± 10 kg/m3
same,mass density,"434.45 K, 39300 kPa",791 ± 10 kg/m3
same,mass density,"434.45 K, 49100 kPa",800.4 ± 10 kg/m3
same,mass density,"434.45 K, 58900 kPa",808.6 ± 10 kg/m3
same,mass density,"461.85 K, 5000 kPa",718.6 ± 10 kg/m3
same,mass density,"461.85 K, 9900 kPa",728.8 ± 10 kg/m3
same,mass density,"461.85 K, 19700 kPa",746.2 ± 10 kg/m3
same,mass density,"461.85 K, 29500 kPa",760 ± 10 kg/m3
same,mass density,"461.85 K, 39300 kPa",771.7 ± 10 kg/m3
same,mass density,"461.85 K, 49100 kPa",782.3 ± 10 kg/m3
same,mass density,"461.85 K, 58900 kPa",791 ± 10 kg/m3
same,mass density,"490.15 K, 5000 kPa",687 ± 10 kg/m3
same,mass density,"490.15 K, 9900 kPa",700 ± 10 kg/m3
same,mass density,"490.15 K, 19700 kPa",720.9 ± 10 kg/m3
same,mass density,"490.15 K, 29500 kPa",737.2 ± 10 kg/m3
same,mass density,"490.15 K, 39300 kPa",750.7 ± 10 kg/m3
same,mass density,"490.15 K, 49100 kPa",762.9 ± 10 kg/m3
same,mass density,"490.15 K, 58900 kPa",773.2 ± 10 kg/m3
CO [methanol],mass density,"298.15 K, 100 kPa",792.6 ± 10 kg/m3
same,mass density,"298.15 K, 5000 kPa",796.2 ± 10 kg/m3
same,mass density,"298.15 K, 9900 kPa",801 ± 10 kg/m3
same,mass density,"298.15 K, 19700 kPa",808.4 ± 10 kg/m3
same,mass density,"298.15 K, 29500 kPa",816 ± 10 kg/m3
same,mass density,"298.15 K, 39300 kPa",823.8 ± 10 kg/m3
same,mass density,"298.15 K, 49100 kPa",830 ± 10 kg/m3
same,mass density,"298.15 K, 58900 kPa",836.3 ± 10 kg/m3
same,mass density,"323.15 K, 100 kPa",770.3 ± 10 kg/m3
same,mass density,"323.15 K, 5000 kPa",774.2 ± 10 kg/m3
same,mass density,"323.15 K, 9900 kPa",778.2 ± 10 kg/m3
same,mass density,"323.15 K, 19700 kPa",787 ± 10 kg/m3
same,mass density,"323.15 K, 29500 kPa",795 ± 10 kg/m3
same,mass density,"323.15 K, 39300 kPa",803.4 ± 10 kg/m3
same,mass density,"323.15 K, 49100 kPa",811 ± 10 kg/m3
same,mass density,"323.15 K, 58900 kPa",818.2 ± 10 kg/m3
same,mass density,"348.15 K, 5000 kPa",748.9 ± 10 kg/m3
same,mass density,"348.15 K, 9900 kPa",753.9 ± 10 kg/m3
same,mass density,"348.15 K, 19700 kPa",764.1 ± 10 kg/m3
same,mass density,"348.15 K, 29500 kPa",773.1 ± 10 kg/m3
same,mass density,"348.15 K, 39300 kPa",782.6 ± 10 kg/m3
same,mass density,"348.15 K, 49100 kPa",790.9 ± 10 kg/m3
same,mass density,"348.15 K, 58900 kPa",798.9 ± 10 kg/m3
same,mass density,"373.15 K, 5000 kPa",721.1 ± 10 kg/m3
same,mass density,"373.15 K, 9900 kPa",727.7 ± 10 kg/m3
same,mass density,"373.15 K, 19700 kPa",739.3 ± 10 kg/m3
same,mass density,"373.15 K, 29500 kPa",750.4 ± 10 kg/m3
same,mass density,"373.15 K, 39300 kPa",760.2 ± 10 kg/m3
same,mass density,"373.15 K, 49100 kPa",769.6 ± 10 kg/m3
same,mass density,"373.15 K, 58900 kPa",778.2 ± 10 kg/m3
same,mass density,"398.15 K, 5000 kPa",690 ± 10 kg/m3
same,mass density,"398.15 K, 9900 kPa",697.6 ± 10 kg/m3
same,mass density,"398.15 K, 19700 kPa",712.8 ± 10 kg/m3
same,mass density,"398.15 K, 29500 kPa",725.4 ± 10 kg/m3
same,mass density,"398.15 K, 39300 kPa",736 ± 10 kg/m3
same,mass density,"398.15 K, 49100 kPa",747.2 ± 10 kg/m3
same,mass density,"398.15 K, 58900 kPa",757 ± 10 kg/m3
same,mass density,"423.15 K, 5000 kPa",652.8 ± 10 kg/m3
same,mass density,"423.15 K, 9900 kPa",665.2 ± 10 kg/m3
same,mass density,"423.15 K, 19700 kPa",683.6 ± 10 kg/m3
same,mass density,"423.15 K, 29500 kPa",698.8 ± 10 kg/m3
same,mass density,"423.15 K, 39300 kPa",710.8 ± 10 kg/m3
same,mass density,"423.15 K, 49100 kPa",723.9 ± 10 kg/m3
same,mass density,"423.15 K, 58900 kPa",735 ± 10 kg/m3
same,mass density,"448.15 K, 5000 kPa",610.4 ± 10 kg/m3
same,mass density,"448.15 K, 9900 kPa",628.9 ± 10 kg/m3
same,mass density,"448.15 K, 19700 kPa",652.4 ± 10 kg/m3
same,mass density,"448.15 K, 29500 kPa",670.8 ± 10 kg/m3
same,mass density,"448.15 K, 39300 kPa",685.6 ± 10 kg/m3
same,mass density,"448.15 K, 49100 kPa",700 ± 10 kg/m3
same,mass density,"448.15 K, 58900 kPa",713 ± 10 kg/m3
same,mass density,"473.15 K, 5000 kPa",553.4 ± 10 kg/m3
same,mass density,"473.15 K, 9900 kPa",585 ± 10 kg/m3
same,mass density,"473.15 K, 19700 kPa",620.2 ± 10 kg/m3
same,mass density,"473.15 K, 29500 kPa",642 ± 10 kg/m3
same,mass density,"473.15 K, 39300 kPa",660.6 ± 10 kg/m3
same,mass density,"473.15 K, 49100 kPa",677.2 ± 10 kg/m3
same,mass density,"473.15 K, 58900 kPa",691.2 ± 10 kg/m3
same,mass density,"498.15 K, 9900 kPa",525 ± 10 kg/m3
same,mass density,"498.15 K, 19700 kPa",584.8 ± 10 kg/m3
same,mass density,"498.15 K, 29500 kPa",613.4 ± 10 kg/m3
same,mass density,"498.15 K, 39300 kPa",636 ± 10 kg/m3
same,mass density,"498.15 K, 49100 kPa",655 ± 10 kg/m3
same,mass density,"498.15 K, 58900 kPa",670 ± 10 kg/m3
